Laboratory results: PubChem BioAssay (NCI)
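Method: 48-hour compound exposure of cells in 96-well plates, five concentrations, linear interpolation of endpoints. At the TGI there is no net growth.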

Key:
Test in all cases: NCI tumour cell line growth inhibition, 48 h
A549 NSCLC = test system: A549 NSCLC
RXF 393 renal = test system: RXF 393 renal
HS 578T breast = test system: HS 578T breast
BT-549 breast = test system: BT-549 breast
SF-539 CNS = test system: SF-539 CNS
HOP-62 NSCLC = test system: HOP-62 NSCLC
U251 CNS = test system: U251 CNS
SF-295 CNS = test system: SF-295 CNS
SK-MEL-5 melanoma = test system: SK-MEL-5 melanoma
NCI/ADR-RES ovarian = test system: NCI/ADR-RES ovarian

Compound	TGI (A549 NSCLC) [µM]	TGI (RXF 393 renal) [µM]	TGI (HS 578T breast) [µM]	TGI (BT-549 breast) [µM]	TGI (SF-539 CNS) [µM]	TGI (HOP-62 NSCLC) [µM]	TGI (U251 CNS) [µM]	TGI (SF-295 CNS) [µM]	TGI (SK-MEL-5 melanoma) [µM]	TGI (NCI/ADR-RES ovarian) [µM]
O=C1CCSCCC(=O)Nc2ccccc2N1	> 100	> 100	> 100	> 100	> 100	> 100	> 100	> 100	> 100	> 100
O=[N+]([O-])c1c(F)c(F)c2c(c1F)N(CCCCCl)c1ccccc1S2	31.8	27.4	74.4	28	31.9	38.3	25.3	31.1	32.7	37.5
CS(=O)(=O)N1CC(CCl)c2ccc(O)cc21 (stereo not given)	11.1	4.19	90.9	8.35	5.05	13	10.3	11.6	3.46	17.4
NCCCN(CCCN)CCc1cn(C(=O)c2ccccc2)cn1	26.7	8.89	86.5	35.1	35.3	23.4	30.1	30.7	21	53.9
